Series [1] has as its system GAPDH. Nature of the series: GAPDH inhibition in HEK-293 cells, same assay. It is filed as cell-based, human. The arrangement: GAPDH max inhibition: unit not given here. As to conditions: for 2D GAPDH 20 nM inhibition: 2D (dual-dose); for GAPDH max inhibition: Table 6.
Series [2] has as its system NRas mRNA. The series is described as follows: NRas mRNA expression in HEK-293 cells, branched DNA assay. It is filed as cell-based, human. Further details: NRAS max inhibition: unit not given here. The note with it: for IC20 / IC50 / IC80 / max. inhib. [%]:: HEK293 cells: dose-response; for NRAS max inhibition: Table 6. The protocol:
The ASOs of the present disclosure were tested for their ability to reduce NRas mRNA expression in HEK-293 cells. The HEK-293 cells were grown in cell culture media and seeded onto a 96 well plate at a density of 20,000 cells/well. ASOs were tested in two separate cohorts: 2 doses or 5 doses were given to the HEK-293 cells (See TABLES 4, 5 and 6) at final concentrations of 20 nM and 2 nM respectively. The assay used Lipofectamine2000 transfection and a 48 hr treatment cycle, with incubation at 37° C. and 5% C02. Analysis of the mRNA expression was then carried out using a branched DNA assay.

21 substances from patent US20220354963A1, “EXTRACELLULAR VESICLE LINKED TO MOLECULES AND USES THEREOF” (Codiak BioSciences, Inc., priority 2019, published 2022) can be followed below.

Usually IC20 stands for the concentration at which the effect reaches the 20% level. Broadly, the IC50 is the concentration that inhibits the measured activity by half. As a reminder, the IC80 is the point of the concentration-response curve where the effect stands at 80%. Take “257 (TCTGCCCGGCCAAACAGCGT; chemistry not given here) [compound 257]”: in series [1], the “2D GAPDH 20 nM inhibition” value stood at 21.09 and the GAPDH max inhibition came to 30.55. In addition, in series [2], it took 0.069 nM to reach the 20% level (IC20), the IC50 came to 0.364 nM, it took 3.67 nM to reach the 80% level (IC80) and the “max. inhib. [%]:” value is given as 87.3%. The substance also yielded an NRAS max inhibition in series [2] of 91.79.

For “252 (CCAAACAGCGTAACC; chemistry not given here) [compound 252]”, in series [1], the “2D GAPDH 20 nM inhibition” value is on record as 13.40 and the GAPDH max inhibition is 29.98. Also, in series [2], it took 0.072 nM to reach the 20% level (IC20), the concentration for half-maximal inhibition (IC50) came out at 0.296 nM, the IC80 was 1.95 nM and the “max. inhib. [%]:” value is 88.4%. Besides, the NRAS max inhibition in series [2] was 91.49.

“231 (GCCGGGCAGAAACTCCGCTG; chemistry not given here) [compound 231]”: in series [1], the “2D GAPDH 20 nM inhibition” value worked out at 36.92 and the GAPDH max inhibition was 29.21. Further, in series [2], the 20% effect concentration (IC20) is 0.18 nM, the half-maximal inhibitory concentration (IC50) was determined as 0.538 nM, it took 2.1 nM to reach the 80% level (IC80) and the “max. inhib. [%]:” value is reported as 90.4%. The NRAS max inhibition in series [2] worked out at 93.63.

“254 (GCCAAACAGCGTAAC; chemistry not given here) [compound 254]”: in series [1], the “2D GAPDH 20 nM inhibition” value turned out to be 20.10 and the GAPDH max inhibition was found to be 32.96. In series [2], the 20% effect concentration (IC20) came out at 0.067 nM, half-maximal inhibition (IC50) was put at 0.336 nM, the concentration for an effect of 80% (IC80) amounted to 2.11 nM and the “max. inhib. [%]:” value amounted to 93.4%. Besides, the NRAS max inhibition in series [2] stood at 96.11.

Take “238 (CTCCCCGAGATGTTCCCTGG; chemistry not given here) [compound 238]”: in series [1], the “2D GAPDH 20 nM inhibition” value turned out to be 22.48 and the GAPDH max inhibition came out at 26.33. In addition, in series [2], it took 0.139 nM to reach the 20% level (IC20), inhibition was half-maximal at 0.646 nM (IC50), the IC80 came to 4.79 nM and the “max. inhib. [%]:” value is listed as 88.9%. Further, the NRAS max inhibition in series [2] was found to be 90.92.

Regarding “185 (TCCGAGAGTGTTGCCTCGCA; chemistry not given here) [compound 185]”, in series [2], the 20% effect concentration (IC20) was 0.074 nM, the IC50 stood at 0.349 nM, the IC80 was determined as 3.8 nM and the “max. inhib. [%]:” value came to 85.4%.

Take “239 (AGGCTCCCCGAGATGTTCCC; chemistry not given here) [compound 239]”: in series [1], the “2D GAPDH 20 nM inhibition” value was found to be 39.01 and the GAPDH max inhibition is listed as 37.62. In addition, in series [2], the 20% effect level (IC20) was put at 0.027 nM, the 50% inhibitory concentration (IC50) was determined as 0.159 nM, the IC80 was found to be 1.46 nM and the “max. inhib. [%]:” value was 90.4%. The substance also registered an NRAS max inhibition in series [2] of 94.35.

As to “227 (GTTTGGCCGGGCAGAAACTC; chemistry not given here) [compound 227]”, in series [1], the “2D GAPDH 20 nM inhibition” value stood at 24.56 and the GAPDH max inhibition is given as 18.30. Besides, in series [2], the IC20 is 0.087 nM, it took 0.413 nM to reach half-maximal inhibition (IC50), the concentration for an effect of 80% (IC80) was determined as 4.05 nM and the “max. inhib. [%]:” value is recorded as 86.3%. Further, the NRAS max inhibition in series [2] is 87.95.

For “224 (GCTGTTTGGCCGGGCAGAAA; chemistry not given here) [compound 224]”, in series [2], the 20% effect level (IC20) was put at 0.639 nM, the IC50 amounted to 1.93 nM and the “max. inhib. [%]:” value worked out at 72.0%.

As to “250 (GCCAAACAGCGTAACCCCTT; chemistry not given here) [compound 250]”, in series [1], the “2D GAPDH 20 nM inhibition” value worked out at 27.30 and the GAPDH max inhibition is 33.44. In series [2], it took 0.173 nM to reach the 20% level (IC20), the concentration for half-maximal inhibition (IC50) was found to be 0.715 nM, the 80% effect level (IC80) was put at 5.68 nM and the “max. inhib. [%]:” value is recorded as 86.3%. Also, the NRAS max inhibition in series [2] is recorded as 88.02.

For the substance “200 (GTTATGGTCAGTTAATAGAA; chemistry not given here) [compound 200]”, in series [1], the “2D GAPDH 20 nM inhibition” value was 33.52 and the GAPDH max inhibition is given as 38.68. Besides, in series [2], the IC20 turned out to be 0.041 nM; the midpoint of inhibition, the IC50, lay at 0.16 nM; it took 0.666 nM to reach the 80% level (IC80); the “max. inhib. [%]:” value came out at 97.6%. In series [2], this substance had an NRAS max inhibition of 98.68.

As to “253 (CGGCCAAACAGCGTAAC; chemistry not given here) [compound 253]”, in series [1], the “2D GAPDH 20 nM inhibition” value turned out to be 40.44 and the GAPDH max inhibition was 29.34. In series [2], the 20% effect level (IC20) was put at 0.108 nM, the half-inhibitory concentration (IC50) turned out to be 0.461 nM, the 80% effect level (IC80) was put at 2.79 nM and the “max. inhib. [%]:” value is recorded as 90.4%. Moreover, the NRAS max inhibition in series [2] came to 94.40.

As to “247 (AAACAGCGTAACCCCTTCTT; chemistry not given here) [compound 247]”, in series [1], the “2D GAPDH 20 nM inhibition” value is recorded as 25.39 and the GAPDH max inhibition was 25.35. In addition, in series [2], the IC20 stood at 0.122 nM; the midpoint of inhibition, the IC50, lay at 0.561 nM; the 80% effect level (IC80) was put at 4.14 nM; the “max. inhib. [%]:” value stood at 88.8%. The same substance gave an NRAS max inhibition in series [2] of 90.09.

With “206 (GAGCCTGGTTGGAAGCTGCA; chemistry not given here) [compound 206]”, in series [1], the “2D GAPDH 20 nM inhibition” value is listed as 40.87 and the GAPDH max inhibition is 44.21. In addition, in series [2], the 20% effect concentration (IC20) amounted to 0.117 nM, half-maximal inhibition (IC50) required 0.471 nM, the IC80 came out at 2.58 nM and the “max. inhib. [%]:” value is listed as 90.9%. In series [2], this substance had an NRAS max inhibition of 94.95.

“SEQ ID NO: 236: NRas ASO, starting nucleotide 421, length 20 (CCCCGAGATGTTCCCTGGTG; chemistry not given here)”: in series [1], the “2D GAPDH 20 nM inhibition” value was 34.05 and the GAPDH max inhibition was determined as 40.06. In series [2], the IC20 is 0.053 nM, 0.349 nM corresponded to half-maximal inhibition (IC50), it took 4.78 nM to reach the 80% level (IC80) and the “max. inhib. [%]:” value was 87.3%. The same substance showed an NRAS max inhibition in series [2] of 91.51.

Take “264 (GCGGAGTTTCTGCCCGGCCA; chemistry not given here) [compound 264]”: in series [1], the “2D GAPDH 20 nM inhibition” value is 10.43 and the GAPDH max inhibition came out at 26.13. Moreover, in series [2], the concentration for an effect of 20% (IC20) was found to be 0.039 nM, the half-inhibitory concentration (IC50) worked out at 0.229 nM, the IC80 worked out at 2.43 nM and the “max. inhib. [%]:” value is 88.5%. In addition, the NRAS max inhibition in series [2] was 91.73.

Regarding “248 (CAAACAGCGTAACCCCTTCT; chemistry not given here) [compound 248]”, in series [1], the “2D GAPDH 20 nM inhibition” value came to 30.77 and the GAPDH max inhibition is 37.96. In series [2], the IC20 stood at 0.051 nM, the IC50 is 0.288 nM, the IC80 was determined as 2.4 nM and the “max. inhib. [%]:” value is reported as 91.0%. Further, the NRAS max inhibition in series [2] was determined as 93.72.

With “SEQ ID NO: 232: NRas ASO, starting nucleotide 400, length 20 (CCGGGCAGAAACTCCGCTGA; chemistry not given here)”, in series [1], the “2D GAPDH 20 nM inhibition” value is on record as 36.10 and the GAPDH max inhibition worked out at 53.16. Also, in series [2], the concentration for an effect of 20% (IC20) was 0.048 nM, the half-maximal inhibitory concentration (IC50) amounted to 0.245 nM, the IC80 came out at 1.59 nM and the “max. inhib. [%]:” value came out at 93.2%. Further, in series [2], the NRAS max inhibition was 95.91.

Take “218 (GTTACGCTGTTTGGCCG; chemistry not given here) [compound 218]”: in series [1], the “2D GAPDH 20 nM inhibition” value turned out to be 28.11 and the GAPDH max inhibition is given as 25.71. For the same substance, in series [2], it took 0.139 nM to reach the 20% level (IC20), half-maximal inhibition (IC50) was put at 0.427 nM, it took 1.94 nM to reach the 80% level (IC80) and the “max. inhib. [%]:” value amounted to 88.0%. Further, the NRAS max inhibition in series [2] came out at 90.00.

Turning to “201 (CACCAGGGAACATCTCGGGG; chemistry not given here) [compound 201]”, in series [1], the “2D GAPDH 20 nM inhibition” value was determined as 16.86 and the GAPDH max inhibition came to 45.30. Further, in series [2], the concentration for an effect of 20% (IC20) was 0.024 nM, 0.1 nM corresponded to half-maximal inhibition (IC50), the 80% effect concentration (IC80) worked out at 0.455 nM and the “max. inhib. [%]:” value was 97.2%. In series [2], this substance returned an NRAS max inhibition of 98.45.

As for “223 (CGCTGTTTGGCCGGGCAGAA; chemistry not given here) [compound 223]”, in series [1], the “2D GAPDH 20 nM inhibition” value was found to be 20.53 and the GAPDH max inhibition was 18.44. Further, in series [2], the 20% effect concentration (IC20) is 0.121 nM; the midpoint of inhibition, the IC50, lay at 0.581 nM; the IC80 amounted to 35.4 nM; the “max. inhib. [%]:” value was determined as 80.8%. Besides, in series [2], the NRAS max inhibition is given as 85.75.
